From article PMC5361079 (Scientific Reports, 2017)
Like-named read-outs stand apart in the source and are kept apart here.

Columns and labels:
hiPSC-CMs = assay: Intracellular prodrug, cleavage intermediate metabolite and NTP metabolite concentrations in hiPSC-CMs; format: in vitro ADME, human; conditions: for Effect of CatA inhibitor on sofosbuvir cleavage intermediate metabolite in hiPSC-CMs: hiPSC-CMs incubated with sofosbuvir; for Intracellular Concentration, Cleavage Intermediate Metabolite / Intracellular Concentration, NTP Metabolite: BLOQ = below 17 pmol/million cells
Experimental: Approximately 18 h before dosing, iCell hiPSC-CMs were switched to iCell cardiomyocyte maintenance media free of Penicillin/Streptomycin. […] […] After the corresponding treatment, cells were washed 2x with 200 μL of ice-cold magnesium- and calcium-free PBS buffer. Cells were then lysed in 100 μL of ice-cold lysis solution (70/30 methanol/water containing 20 mM EDTA and 20 mM EGTA, pH 8) by pipetting up and down 5 times. Plates were sealed and transferred on dry ice for determination of prodrug, cleavage intermediate metabolite, and NTP metabolite concentrations. Intracellular prodrug concentrations were measured using a reversed phase HPLC- high resolution mass spectrometry method. A dimethylhexylamine based ion-pairing HPLC-MS/MS method was used to measure intracellular cleavage intermediate metabolite and NTP metabolite concentrations. Intracellular concentrations (pmol/million cells) of prodrug, cleavage intermediate metabolite, and NTP metabolite were quantitated against calibration standards of the same analytes prepared from control iCell hiPSC-CM lysates.
For prodrug analyses, full scan high resolution mass spectrometry data was collected using an Exactive™ Orbitrap mass spectrometer with an electrospray source operated in the positive ion mode. Prodrug chromatograms were extracted from full scan high resolution mass spectrometry data for the masses indicated in Supplementary Table 5. Absence of endogenous interference(s) was verified by extracting the same ion from full scan high resolution mass spectrometry chromatograms of unspiked control cell lysates. For the cleavage intermediate metabolite and NTP metabolite an electrospray MS/MS method run on a SCIEX API 4000 mass spectrometer with turboV ionspray source was used in negative ion mode monitoring the transitions indicated in Supplementary Table 5. Absence of endogenous interference(s) was verified by monitoring of the same MRM transitions for unspiked control cell lysates. Measured intracellular prodrug, cleavage intermediate metabolite, and NTP metabolite concentrations (in pmol/million cells units) were tabulated (Table 2).

Cav1.2 = molecular target: T1, Cav1.2 (Homo sapiens, UniProt Q13936); assay: Ca2+ influx in Cav1.2/HEK-293 cells (FDSS); format: cell-based; conditions: for IC50: Cav1.2/HEK-293, compound alone
T1 construct: expressed in transfected cells
Experimental: The HEK-293 cell line overexpressing Cav1.2 channel proteins was maintained in-house. HEK-293 cells transiently overexpressing Cav1.3 channel proteins were purchased from ChanTest (Charles River Laboratories, Cleveland, OH, USA). The assay was conducted as previously described. Briefly, on experiment day, cells were incubated with Codex ACTOne® dye (Codex Biosolutions, Inc., Gaithersburg, MD, USA) formulated in PPB buffer containing 25 mM potassium (in mM: 127 NaCl, 25 KCl 0.005 CaCl2, 1.7 MgCl2, 10 HEPES, pH = 7.2 with NaOH), or PPB buffer containing 1 mM potassium (in mM: 151 NaCl, 1 KCl 0.005 CaCl2, 1.7 MgCl2, 10 HEPES, pH = 7.2 with NaOH) for 1 h at room temperature, then test compounds were added for another 30-minute incubation at room temperature with a final volume of 100 μL. The Hamamatsu FDSS/μCell imaging platform simultaneously collected Ca^2+ signals from 96-well plates, at a sampling rate of 16 Hz for 20 seconds as baseline, then a trigger buffer (containing in mM: 119 NaCl, 25 KCl, 4 CaCl2, 1.7 MgCl2, 10 HEPES, pH = 7.2 with NaOH) was added using the dispenser of the FDSS/μCell instrument to generate Ca^2+ transient for 40 seconds. The peak amplitude within the latter 40 seconds minus the average amplitude of the first 20 seconds is the final Ca^2+ transient response of each well. […] Relative response of each well was calculated as follows: […]

hiPSC-CM syncytia = assay: Spontaneous FP rate and IMP amplitude/beating rate in hiPSC-CM syncytia (RTCA CardioECR / RTCA Cardio); format: cell-based, human; conditions: for Effect on FP rate / Effect on IMP amplitude: prodrug co-administered with 0.3 μM amiodarone, steady state (4 h), spontaneously beating hiPSC-CM syncytia
Experimental: hiPSC-CMs (iCells®) from Cellular Dynamics International (CDI, Madison, WI, USA) were seeded onto 48-well CardioECR or 96-well Cardio E-Plates® (ACEA Biosciences Inc., San Diego, CA, USA) coated with 10 μg/mL fibronectin (Sigma Aldrich, Catalog# F1141) at 30,000 cells/well, following manufacturer’s recommendations. Cells were maintained in culture (37 °C, 5% CO2) for a period of 14 days with iCell Maintenance® media (CDI, Madison, WI, USA) exchanged every 2–3 days. Compound addition was only performed on or after Day 14 following cell seeding.
Compound stock solutions were prepared in 100% DMSO or H2O. On the day of compound addition, the media was exchanged with fresh iCell Maintenance® media and allowed to equilibrate for at least 3 h in the incubator. The plates were read on an xCELLigence® RTCA CardioECR or RTCA Cardio (ACEA Biosciences Inc., San Diego, CA, USA). Control pre-reads to establish a baseline were recorded for at least 45 minutes (4 reads at 15-min intervals) prior to compound addition. The compound stock solutions were diluted into iCell Maintenance® media and quickly added to the plate. The plate was continuously monitored for at least 18 h following compound addition. IMP data were sampled at 12 ms (83 Hz), while FP rate data were collected at 0.1 ms (10 KHz). Attachment, growth and viability of syncytia were monitored by means of the baseline IMP signal, as previously described. IMP and FP signals were only interpreted if the baseline IMP was maintained throughout the measurement period (usually ≤18 hrs) at ≥70% of the value before test compound application (pre-read value).

[1] = read-out: IC50, Ca2+ influx inhibition
[2] = hiPSC-CMs, 10 μM prodrug + 0.3 μM amiodarone, 4 Hours
[3] = hiPSC-CMs, 10 μM prodrug + 0.3 μM amiodarone, 30 Min
[4] = hiPSC-CMs, 10 μM prodrug alone, 4 Hours
[5] = hiPSC-CMs, 10 μM prodrug alone, 30 Min

T1 sequence (Q13936 whole entry): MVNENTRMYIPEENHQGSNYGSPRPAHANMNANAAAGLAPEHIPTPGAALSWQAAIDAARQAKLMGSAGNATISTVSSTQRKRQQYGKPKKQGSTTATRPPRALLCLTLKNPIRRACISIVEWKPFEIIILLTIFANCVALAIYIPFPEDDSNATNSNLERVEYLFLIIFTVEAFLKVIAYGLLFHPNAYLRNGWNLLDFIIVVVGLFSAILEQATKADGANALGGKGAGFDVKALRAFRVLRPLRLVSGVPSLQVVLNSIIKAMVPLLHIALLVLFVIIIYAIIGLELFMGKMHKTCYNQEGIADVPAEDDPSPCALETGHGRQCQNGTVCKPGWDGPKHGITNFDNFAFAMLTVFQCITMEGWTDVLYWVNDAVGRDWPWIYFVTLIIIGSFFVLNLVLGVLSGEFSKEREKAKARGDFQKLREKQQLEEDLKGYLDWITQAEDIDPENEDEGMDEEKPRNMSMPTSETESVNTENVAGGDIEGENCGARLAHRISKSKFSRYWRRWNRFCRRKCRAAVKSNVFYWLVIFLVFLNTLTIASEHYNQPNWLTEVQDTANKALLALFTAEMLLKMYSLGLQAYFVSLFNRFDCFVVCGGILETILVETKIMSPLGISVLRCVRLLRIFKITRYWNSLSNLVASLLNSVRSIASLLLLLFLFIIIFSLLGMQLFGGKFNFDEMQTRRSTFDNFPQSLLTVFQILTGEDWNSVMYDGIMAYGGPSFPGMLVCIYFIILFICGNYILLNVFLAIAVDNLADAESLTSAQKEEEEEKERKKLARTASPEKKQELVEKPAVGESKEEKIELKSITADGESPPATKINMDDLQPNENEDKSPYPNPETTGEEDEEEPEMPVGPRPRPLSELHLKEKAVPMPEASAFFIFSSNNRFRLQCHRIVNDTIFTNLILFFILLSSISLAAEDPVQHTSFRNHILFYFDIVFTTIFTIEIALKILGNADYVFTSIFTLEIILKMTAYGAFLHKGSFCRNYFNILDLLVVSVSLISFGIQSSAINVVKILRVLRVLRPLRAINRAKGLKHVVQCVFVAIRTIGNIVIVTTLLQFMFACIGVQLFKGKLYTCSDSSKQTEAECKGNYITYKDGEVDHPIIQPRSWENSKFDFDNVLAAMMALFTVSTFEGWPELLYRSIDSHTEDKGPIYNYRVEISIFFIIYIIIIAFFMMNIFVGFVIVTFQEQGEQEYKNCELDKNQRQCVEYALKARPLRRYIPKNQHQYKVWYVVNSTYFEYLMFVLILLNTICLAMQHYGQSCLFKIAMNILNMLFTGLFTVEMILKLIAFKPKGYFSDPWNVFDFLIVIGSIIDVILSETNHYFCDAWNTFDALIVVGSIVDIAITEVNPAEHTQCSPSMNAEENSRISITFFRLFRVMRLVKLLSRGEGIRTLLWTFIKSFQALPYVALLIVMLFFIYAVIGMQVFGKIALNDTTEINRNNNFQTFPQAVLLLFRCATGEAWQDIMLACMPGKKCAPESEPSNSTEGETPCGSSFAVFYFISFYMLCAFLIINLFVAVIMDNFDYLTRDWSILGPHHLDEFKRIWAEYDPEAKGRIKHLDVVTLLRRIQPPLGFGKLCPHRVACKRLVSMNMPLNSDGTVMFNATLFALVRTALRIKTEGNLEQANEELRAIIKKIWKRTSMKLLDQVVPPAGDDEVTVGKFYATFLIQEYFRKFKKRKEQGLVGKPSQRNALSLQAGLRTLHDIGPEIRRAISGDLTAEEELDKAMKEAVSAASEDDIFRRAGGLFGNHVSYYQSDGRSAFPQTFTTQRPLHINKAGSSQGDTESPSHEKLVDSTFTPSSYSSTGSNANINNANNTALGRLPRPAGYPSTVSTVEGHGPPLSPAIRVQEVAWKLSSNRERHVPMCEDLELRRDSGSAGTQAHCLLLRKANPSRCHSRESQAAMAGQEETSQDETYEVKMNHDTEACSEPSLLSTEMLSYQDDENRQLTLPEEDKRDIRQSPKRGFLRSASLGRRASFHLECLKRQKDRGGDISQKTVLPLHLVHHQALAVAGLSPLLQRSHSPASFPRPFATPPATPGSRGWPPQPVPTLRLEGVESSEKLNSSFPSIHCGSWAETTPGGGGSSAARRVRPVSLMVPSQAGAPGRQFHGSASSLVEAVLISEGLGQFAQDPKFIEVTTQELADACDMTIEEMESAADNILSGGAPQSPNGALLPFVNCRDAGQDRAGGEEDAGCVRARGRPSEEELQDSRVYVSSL
T1 sequence (Q08289 whole entry partner): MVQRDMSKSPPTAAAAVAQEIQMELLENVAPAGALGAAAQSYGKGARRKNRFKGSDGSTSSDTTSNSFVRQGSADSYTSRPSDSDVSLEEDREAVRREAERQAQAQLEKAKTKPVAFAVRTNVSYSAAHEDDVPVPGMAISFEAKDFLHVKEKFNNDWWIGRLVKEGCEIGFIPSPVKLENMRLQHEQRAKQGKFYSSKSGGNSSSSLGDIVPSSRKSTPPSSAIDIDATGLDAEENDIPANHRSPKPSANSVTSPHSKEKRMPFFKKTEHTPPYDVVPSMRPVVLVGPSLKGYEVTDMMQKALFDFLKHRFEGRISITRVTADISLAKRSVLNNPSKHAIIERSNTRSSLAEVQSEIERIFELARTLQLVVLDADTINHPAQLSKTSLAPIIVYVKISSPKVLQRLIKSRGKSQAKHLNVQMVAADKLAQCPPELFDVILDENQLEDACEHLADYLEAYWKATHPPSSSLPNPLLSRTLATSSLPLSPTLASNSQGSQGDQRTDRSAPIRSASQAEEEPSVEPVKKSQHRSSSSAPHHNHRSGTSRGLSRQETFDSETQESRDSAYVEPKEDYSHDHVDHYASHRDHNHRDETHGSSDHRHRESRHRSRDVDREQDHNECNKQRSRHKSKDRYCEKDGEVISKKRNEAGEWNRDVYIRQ
T1 sequence (P54289 25-946 partner limits assumed): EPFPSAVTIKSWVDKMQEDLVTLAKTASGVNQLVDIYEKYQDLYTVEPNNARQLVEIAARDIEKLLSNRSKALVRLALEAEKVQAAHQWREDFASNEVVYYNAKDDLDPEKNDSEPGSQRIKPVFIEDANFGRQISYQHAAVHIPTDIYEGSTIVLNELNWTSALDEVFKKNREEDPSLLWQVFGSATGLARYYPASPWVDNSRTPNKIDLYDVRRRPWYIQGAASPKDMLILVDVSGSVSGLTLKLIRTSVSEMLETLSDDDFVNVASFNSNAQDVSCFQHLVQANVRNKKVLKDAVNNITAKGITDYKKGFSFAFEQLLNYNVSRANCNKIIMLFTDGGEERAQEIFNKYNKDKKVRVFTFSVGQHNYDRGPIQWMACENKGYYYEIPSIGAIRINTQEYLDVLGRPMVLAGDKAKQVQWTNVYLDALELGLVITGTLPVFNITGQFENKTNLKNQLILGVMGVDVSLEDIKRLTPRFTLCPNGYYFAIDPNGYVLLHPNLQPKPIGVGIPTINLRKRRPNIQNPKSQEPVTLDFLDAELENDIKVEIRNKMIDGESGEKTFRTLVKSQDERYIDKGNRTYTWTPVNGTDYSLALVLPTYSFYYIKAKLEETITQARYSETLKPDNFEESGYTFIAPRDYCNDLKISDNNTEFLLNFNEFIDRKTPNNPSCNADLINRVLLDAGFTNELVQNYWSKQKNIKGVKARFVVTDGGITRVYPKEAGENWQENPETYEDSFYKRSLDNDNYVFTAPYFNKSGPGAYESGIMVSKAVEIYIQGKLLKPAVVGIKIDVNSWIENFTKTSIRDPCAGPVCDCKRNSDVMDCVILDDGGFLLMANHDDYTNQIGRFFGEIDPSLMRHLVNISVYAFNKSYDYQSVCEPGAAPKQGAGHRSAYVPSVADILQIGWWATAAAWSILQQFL
T1 sequence (P54289 947-1103 partner limits assumed): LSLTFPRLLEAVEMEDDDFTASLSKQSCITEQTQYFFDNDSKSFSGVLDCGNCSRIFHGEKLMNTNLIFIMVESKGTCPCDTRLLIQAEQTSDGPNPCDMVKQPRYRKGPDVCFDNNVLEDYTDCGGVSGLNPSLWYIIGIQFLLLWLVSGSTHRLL

| Intracellular Concentration, Cleavage Intermediate Metabolite (hiPSC-CMs; [4]) | Intracellular Concentration, Cleavage Intermediate Metabolite (hiPSC-CMs; [5]) | Reduction of cleavage intermediate metabolite level compared to sofosbuvir (hiPSC-CMs; hiPSC-CMs, after 4-h incubation) | Structure (SMILES) | Effect of CatA inhibitor on sofosbuvir cleavage intermediate metabolite in hiPSC-CMs (hiPSC-CMs) | IC50 (Cav1.2; n = 3 for each test, read-out: IC50 in repeat tests) | IC50 (Cav1.2; [1]) | Effect on FP rate (hiPSC-CM syncytia) | Effect on IMP amplitude (hiPSC-CM syncytia) | Intracellular Concentration, Prodrug (hiPSC-CMs; [2]) | Intracellular Concentration, Cleavage Intermediate Metabolite (hiPSC-CMs; [2]) | Intracellular Concentration, NTP Metabolite (hiPSC-CMs; [2]) | Intracellular Concentration, Prodrug (hiPSC-CMs; [3]) | Intracellular Concentration, Cleavage Intermediate Metabolite (hiPSC-CMs; [3]) | Intracellular Concentration, NTP Metabolite (hiPSC-CMs; [3]) | Intracellular Concentration, Prodrug (hiPSC-CMs; [4]) | Intracellular Concentration, NTP Metabolite (hiPSC-CMs; [4]) | Intracellular Concentration, Prodrug (hiPSC-CMs; [5]) | Intracellular Concentration, NTP Metabolite (hiPSC-CMs; [5]) | inhibition at 30 min, 150 µM (Cav1.2; HEK-293 cells overexpressing Cav1.2 channel proteins, pH 7.2, Cav1.2/HEK-293, 150 μM, compound alone, read-out: inhibition at maximal tested concentration) | Effect of CatA inhibitor on L-ala,SP prodrug + amiodarone effects (FP rate, IMP amplitude) (hiPSC-CM syncytia; 30 min pre-incubation and continued incubation, Ebel 3 or 10 μM with sofosbuvir or MNI-1, SAR164653 30 μM with 1 μM MNI-1, 0.3 μM amiodarone) |
| --- | --- | --- | --- | --- | --- | --- | --- | --- | --- | --- | --- | --- | --- | --- | --- | --- | --- | --- | --- | --- |
| – | – | – | COc1cc(C(=O)N[C@@H](CC(=O)O)c2ccccc2C)nn1-c1ccccc1F [SAR164653, reference compound] | decreased, with concentration and time dependence | – | – | – | – | – | – | – | – | – | – | – | – | – | – | – | – |
| 121.0 ± 6.24 pmol/million cells | B LOQ | ~ 80% | CC(C)OC(=O)C(C)NP(=O)(OCC1OC(n2ccc(=O)[nH]c2=O)C(C)(F)C1O)Oc1ccccc1 (stereo not shown) [MNI-5] | – | – | – | – | – | – | – | – | – | – | – | 97.1 ± 36.8 pmol/million cells | B LOQ | 53.6 ± 14.2 pmol/million cells | B LOQ | – | – |
| B LOQ | B LOQ | – | CC(C)OC(=O)C(C)NP(=O)(OCC1OC(n2ccc(=O)[nH]c2=O)C(C)(F)C1O)Oc1ccccc1 (stereo not shown) [MNI-6] | – | – | – | – | – | – | – | – | – | – | – | 65.5 ± 5.8 pmol/million cells | B LOQ | 46.6 ± 3.1 pmol/million cells | B LOQ | – | – |
| – | – | – | C#C[C@]1(C)[C@@H](O)[C@@H](COP(=O)(N[C@@H](C)C(=O)OC(C)C)Oc2ccccc2)O[C@H]1n1ccc(=O)[nH]c1=O (stereo partly drawn) [MNI-1, isopropyl (2S)-2-[[[(2R,3R,4R,5R)-5-(2,4-dioxopyrimidin-1-yl)-4-ethynyl-3-hydroxy-4-methyl-tetrahydrofuran-2-yl]methoxy-phenoxy-phosphoryl]amino]propanoate] | – | – | > 150 µM | Concentration-dependent, steady-state effects | Concentration-dependent, steady-state effects | 70.5 ± 14.4 pmol/million cells | – | Detected but BLOQ | 69.9 ± 5.3 pmol/million cells | – | BLOQ | 69.1 ± 6.8 pmol/million cells | Detected but BLOQ | 75.4 ± 2.3 pmol/million cells | BLOQ | 21% | – |
| – | – | – | CC[C@@H](C)[C@@H](O)[C@H](C)C(=O)[C@H](C)/C=C(\C)C[C@H](C)[C@@H]1OC(=O)[C@H]1CC [Ebel, ebelactone B, reference compound] | transiently inhibited the formation of the sofosbuvir cleavage intermediate metabolite to levels below the limit of quantitation after 30 min incubation | – | – | – | – | – | – | – | – | – | – | – | – | – | – | – | concentration-dependent exacerbation |
| – | – | – | CC(C)OC(=O)[C@H](C)NP(=O)(OC[C@H]1O[C@@H](n2ccc(=O)[nH]c2=O)[C@](C)(Cl)[C@@H]1O)Oc1ccccc1 (stereo partly drawn) [MNI-3, isopropyl (2S)-2-[[[(2R,3R,4R,5R)-4-chloro-5-(2,4-dioxopyrimidin-1-yl)-3-hydroxy-4-methyl-tetrahydrofuran-2-yl]methoxy-phenoxy-phosphoryl]amino]propanoate] | – | – | – | Concentration-dependent, steady-state effects | Concentration-dependent, steady-state effects | 94.0 ± 6.0 pmol/million cells | – | – | 89.8 ± 12.5 pmol/million cells | – | BLOQ | 106.9 ± 10.1 pmol/million cells | – | 97.3 ± 14.0 pmol/million cells | BLOQ | – | – |

| Structure (SMILES) | Intracellular Concentration, Cleavage Intermediate Metabolite (hiPSC-CMs; [4]) | Intracellular Concentration, Cleavage Intermediate Metabolite (hiPSC-CMs; [5]) | Reduction of cleavage intermediate metabolite level compared to sofosbuvir (hiPSC-CMs; hiPSC-CMs, after 4-h incubation) | Effect of CatA inhibitor on sofosbuvir cleavage intermediate metabolite in hiPSC-CMs (hiPSC-CMs) | IC50 (Cav1.2; n = 3 for each test, read-out: IC50 in repeat tests) | IC50 (Cav1.2; [1]) | Effect on FP rate (hiPSC-CM syncytia) | Effect on IMP amplitude (hiPSC-CM syncytia) | Intracellular Concentration, Prodrug (hiPSC-CMs; [2]) | Intracellular Concentration, Cleavage Intermediate Metabolite (hiPSC-CMs; [2]) | Intracellular Concentration, NTP Metabolite (hiPSC-CMs; [2]) | Intracellular Concentration, Prodrug (hiPSC-CMs; [3]) | Intracellular Concentration, Cleavage Intermediate Metabolite (hiPSC-CMs; [3]) | Intracellular Concentration, NTP Metabolite (hiPSC-CMs; [3]) | Intracellular Concentration, Prodrug (hiPSC-CMs; [4]) | Intracellular Concentration, NTP Metabolite (hiPSC-CMs; [4]) | Intracellular Concentration, Prodrug (hiPSC-CMs; [5]) | Intracellular Concentration, NTP Metabolite (hiPSC-CMs; [5]) | inhibition at 30 min, 150 µM (Cav1.2; HEK-293 cells overexpressing Cav1.2 channel proteins, pH 7.2, Cav1.2/HEK-293, 150 μM, compound alone, read-out: inhibition at maximal tested concentration) | Effect of CatA inhibitor on L-ala,SP prodrug + amiodarone effects (FP rate, IMP amplitude) (hiPSC-CM syncytia; 30 min pre-incubation and continued incubation, Ebel 3 or 10 μM with sofosbuvir or MNI-1, SAR164653 30 μM with 1 μM MNI-1, 0.3 μM amiodarone) |
| --- | --- | --- | --- | --- | --- | --- | --- | --- | --- | --- | --- | --- | --- | --- | --- | --- | --- | --- | --- | --- |
| C#C[C@]1(C)[C@@H](O)[C@@H](COP(=O)(N[C@H](C)C(=O)OC(C)C)Oc2ccccc2)O[C@H]1n1ccc(=O)[nH]c1=O (stereo partly drawn) [MNI-4, isopropyl (2R)-2-[[[(2R,3R,4R,5R)-5-(2,4-dioxopyrimidin-1-yl)-4-ethynyl-3-hydroxy-4-methyl-tetrahydrofuran-2-yl]methoxy-phenoxy-phosphoryl]amino]propanoate] | BLOQ | BLOQ | – | – | 27 to 45 µM | ~36 µM | lack of effects | lack of effects | 78.7 ± 6.4 pmol/million cells | BLOQ | BLOQ | 84.8 ± 12.4 pmol/million cells | BLOQ | BLOQ | 77.4 ± 6.7 pmol/million cells | BLOQ | 75.4 ± 5.1 pmol/million cells | BLOQ | – | – |
